Tested on: patients with unresectable HCC
Experiment: Open-label phase 3 study, safety and side-effect profile (CTCAE v4.0)
[1] = Any grade, listed as lenvatinib

From the text: Randomization was stratified according to region (Asia-Pacific or Western regions), macroscopic portal vein invasion and/or extrahepatic spread (yes or no), Eastern Cooperative Oncology Group performance status (0 or 1), and body weight (<60 kg or ≥60 kg).
Safety assessments included recording of vital signs, hematologic and biochemical laboratory testing, urinalysis, and electrocardiography.

COc1cc2nccc(Oc3ccc(NC(=O)NC4CC4)c(Cl)c3)c2cc1C(N)=O [Lenvatinib, 4-(3-chloro-4(cyclopropylaminocarbonyl)aminophenoxy)-7-methoxy-6-quinolinecarboxamide]
TEAE: Alopecia (12 mg starting dose): 9 (2.8) n (%)
TEAE: Ascites (12 mg starting dose): 47 (14.5) n (%)
TEAE: Aspartate aminotransferase increased (12 mg starting dose): 44 (13.5) n (%)
TEAE: Asthenia (12 mg starting dose): 40 (12.3) n (%)
TEAE: Back pain (12 mg starting dose): 39 (12.0) n (%)
TEAE: Blood bilirubin increased (12 mg starting dose): 48 (14.8) n (%)
TEAE: Constipation (12 mg starting dose): 57 (17.5) n (%)
TEAE: Decreased appetite (12 mg starting dose): 112 (34.5) n (%)
TEAE: Diarrhea (12 mg starting dose): 131 (40.3) n (%)
TEAE: Dysphonia (12 mg starting dose): 85 (26.2) n (%)
TEAE: Edema peripheral (12 mg starting dose): 43 (13.2) n (%)
TEAE: Fatigue (12 mg starting dose): 99 (30.5) n (%)
TEAE: Hypertension (12 mg starting dose): 136 (41.8) n (%)
TEAE: Hypothyroidism (12 mg starting dose): 53 (16.3) n (%)
TEAE: Nausea (12 mg starting dose): 69 (21.2) n (%)
TEAE: Palmar-plantar erythrodysesthesia syndrome (12 mg starting dose): 93 (28.6) n (%)
TEAE: Platelet count decreased (12 mg starting dose): 61 (18.8) n (%)
TEAE: Proteinuria (12 mg starting dose): 80 (24.6) n (%)
TEAE: Pyrexia (12 mg starting dose): 45 (13.8) n (%)
TEAE: Rash (12 mg starting dose): 28 (8.6) n (%)
TEAE: Stomatitis (12 mg starting dose): 34 (10.5) n (%)
TEAE: Vomiting (12 mg starting dose): 55 (16.9) n (%)
TEAE: Weight decreased (12 mg starting dose): 104 (32.0) n (%)
TEAE: Dysphonia (Any grade): (23.7) %
TEAE: Proteinuria (Any grade): (24.6) %
TEAE: decreased weight (Any grade): (30.9) %
TEAE: Dysphonia [1]: 23.7%
TEAE: Hypertension [1]: 42.2%
TEAE: Hypothyroidism [1]: 16.4%
TEAE: Proteinuria [1]: 24.6%
Primary reason for discontinuation of treatment: Adverse event (Full Analysis Set): 63 (13.2) n (%)
most common adverse reactions, in order of decreasing frequency (HCC subjects): hypertension, fatigue, diarrhea, decreased appetite, arthralgia/myalgia, and decreased weight
adverse event rate adjusted by patient-years (TEAEs of grade 3 or higher): 3.2
adverse event rate adjusted by patient-years (all TEAEs): 18.9
Dose modification: AST increased (in vivo): 1.9%
Dose modification: ascites (in vivo): 2.1%
Dose modification: hepatic encephalopathy (in vivo): 4.2%
Dose modification: neutrophil count decreased (in vivo): 2.3%
Dose modification: pyrexia (in vivo): 2.5%
Dose modification: vomiting (in vivo): 2.5%
Dose modification: weight decreased (in vivo): 4.2%
Dose reduction/interruption: Gastrointestinal disorders (in vivo): 18.3%
Dose reduction/interruption: General disorders and administration site conditions (in vivo): 14.1%
Dose reduction/interruption: Investigations (in vivo): 17.0%
Dose reduction/interruption: Metabolism and nutrition disorders (in vivo): 10.9%
Dose reduction/interruption: PPE syndrome (in vivo): 5.3%
Dose reduction/interruption: decreased appetite (in vivo): 7.6%
Dose reduction/interruption: diarrhea (in vivo): 7.6%
Dose reduction/interruption: fatigue (in vivo): 5.7%
Dose reduction/interruption: hypertension (in vivo): 6.1%
Dose reduction/interruption: proteinuria (in vivo): 6.9%
Treatment-emergent adverse events of grade 3 or higher, patients (in vivo): 75.0%
Treatment-emergent adverse events, patients (in vivo): 98.7%
WBC count deceased, adjusted by treatment duration (in vivo): 0.25 episodes per SY
dysphonia, adjusted by treatment duration (in vivo): 0.4 episodes per SY
hepatic encephalopathy, adjusted by treatment duration (in vivo): 0.17 episodes per SY
hypothyroidism, adjusted by treatment duration (in vivo): 0.24 episodes per SY
neutrophil count decreased, adjusted by treatment duration (in vivo): 0.21 episodes per SY
proteinuria, adjusted by treatment duration (in vivo): 0.5 episodes per SY
subjects without a TEAE (in vivo): 6 subjects
AEs leading to dose reduction or interruption, subjects (unadjusted for treatment duration): 61.8%
Dose reduction/interruption: Abdominal pain (whole arm): 6 (1.3) n (%)
Dose reduction/interruption: Abdominal pain upper (whole arm): 5 (1.1) n (%)
Dose reduction/interruption: Alanine aminotransferase increased (whole arm): 6 (1.3) n (%)
Dose reduction/interruption: Anemia (whole arm): 3 (0.6) n (%)
Dose reduction/interruption: Ascites (whole arm): 10 (2.1) n (%)
Dose reduction/interruption: Aspartate aminotransferase increased (whole arm): 9 (1.9) n (%)
Dose reduction/interruption: Asthenia (whole arm): 16 (3.4) n (%)
Dose reduction/interruption: Blood and lymphatic system disorders (whole arm): 16 (3.4) n (%)
Dose reduction/interruption: Blood bilirubin increased (whole arm): 20 (4.2) n (%)
Dose reduction/interruption: Decreased appetite (whole arm): 36 (7.6) n (%)
Dose reduction/interruption: Dehydration (whole arm): 6 (1.3) n (%)
Dose reduction/interruption: Diarrhea (whole arm): 36 (7.6) n (%)
Dose reduction/interruption: Dyspnea (whole arm): 8 (1.7) n (%)
Dose reduction/interruption: Edema peripheral (whole arm): 6 (1.3) n (%)
Dose reduction/interruption: Esophageal varices hemorrhage (whole arm): 5 (1.1) n (%)
Dose reduction/interruption: Fatigue (whole arm): 27 (5.7) n (%)
Dose reduction/interruption: Gamma-glutamyltransferase increased (whole arm): 7 (1.5) n (%)
Dose reduction/interruption: Gastrointestinal disorders (whole arm): 87 (18.3) n (%)
Dose reduction/interruption: General disorders and administration site conditions (whole arm): 67 (14.1) n (%)
Dose reduction/interruption: Hepatic encephalopathy (whole arm): 20 (4.2) n (%)
Dose reduction/interruption: Hepatic function abnormal (whole arm): 2 (0.4) n (%)
Dose reduction/interruption: Hepatobiliary disorders (whole arm): 27 (5.7) n (%)
Dose reduction/interruption: Hypertension (whole arm): 29 (6.1) n (%)
Dose reduction/interruption: Hyponatremia (whole arm): 5 (1.1) n (%)
Dose reduction/interruption: Investigations (whole arm): 81 (17.0) n (%)
Dose reduction/interruption: Malaise (whole arm): 5 (1.1) n (%)
Dose reduction/interruption: Metabolism and nutrition disorders (whole arm): 52 (10.9) n (%)
Dose reduction/interruption: Musculoskeletal and connective tissue disorders (whole arm): 18 (3.8) n (%)
Dose reduction/interruption: Myalgia (whole arm): 5 (1.1) n (%)
Dose reduction/interruption: Nausea (whole arm): 16 (3.4) n (%)
Dose reduction/interruption: Nervous system disorders (whole arm): 35 (7.4) n (%)
Dose reduction/interruption: Neutropenia (whole arm): 6 (1.3) n (%)
Dose reduction/interruption: Neutrophil count decreased (whole arm): 11 (2.3) n (%)
Dose reduction/interruption: Palmar-plantar erythrodysesthesia syndrome (whole arm): 25 (5.3) n (%)
Dose reduction/interruption: Platelet count decreased (whole arm): 22 (4.6) n (%)
Dose reduction/interruption: Proteinuria (whole arm): 33 (6.9) n (%)
Dose reduction/interruption: Pyrexia (whole arm): 12 (2.5) n (%)
Dose reduction/interruption: Rash (whole arm): 2 (0.4) n (%)
Dose reduction/interruption: Rash maculo-papular (whole arm): 0 (0.0) n (%)
Dose reduction/interruption: Renal and urinary disorders (whole arm): 40 (8.4) n (%)
Dose reduction/interruption: Respiratory, thoracic and mediastinal disorders (whole arm): 16 (3.4) n (%)
Dose reduction/interruption: Skin and subcutaneous tissue disorders (whole arm): 28 (5.9) n (%)
Dose reduction/interruption: Stomatitis (whole arm): 6 (1.3) n (%)
Dose reduction/interruption: Thrombocytopenia (whole arm): 6 (1.3) n (%)
Dose reduction/interruption: Vascular disorders (whole arm): 33 (6.9) n (%)
Dose reduction/interruption: Vomiting (whole arm): 12 (2.5) n (%)
Dose reduction/interruption: Weight decreased (whole arm): 20 (4.2) n (%)
Dose reduction/interruption: White blood cell count decreased (whole arm): 6 (1.3) n (%)
Subjects with Any TEAEs (whole arm): 470 (98.7) n (%)
Subjects with any TEAEs leading to Dose Reduction or Interruption (whole arm): 294 (61.8) n (%)
TEAE: Abdominal pain (whole arm): 81 (17.0) n (%)
TEAE: Abdominal pain upper (whole arm): 58 (12.2) n (%)
TEAE: Alanine aminotransferase increased (whole arm): 53 (11.1) n (%)
TEAE: Alopecia (whole arm): 14 (2.9) n (%)
TEAE: Ascites (whole arm): 68 (14.3) n (%)
TEAE: Aspartate aminotransferase increased (whole arm): 65 (13.7) n (%)
TEAE: Asthenia (whole arm): 54 (11.3) n (%)
TEAE: Back pain (whole arm): 50 (10.5) n (%)
TEAE: Blood bilirubin increased (whole arm): 71 (14.9) n (%)
TEAE: Constipation (whole arm): 76 (16.0) n (%)
TEAE: Decreased appetite (whole arm): 162 (34.0) n (%)
TEAE: Diarrhea (whole arm): 184 (38.7) n (%)
TEAE: Dysphonia (whole arm): 113 (23.7) n (%)
TEAE: Edema peripheral (whole arm): 66 (13.9) n (%)
TEAE: Fatigue (whole arm): 141 (29.6) n (%)
TEAE: Hypertension (whole arm): 201 (42.2) n (%)
TEAE: Hypothyroidism (whole arm): 78 (16.4) n (%)
TEAE: Nausea (whole arm): 93 (19.5) n (%)
TEAE: Palmar-plantar erythrodysesthesia syndrome (whole arm): 128 (26.9) n (%)
TEAE: Platelet count decreased (whole arm): 87 (18.3) n (%)
TEAE: Proteinuria (whole arm): 117 (24.6) n (%)
TEAE: Pyrexia (whole arm): 69 (14.5) n (%)
TEAE: Rash (whole arm): 46 (9.7) n (%)
TEAE: Stomatitis (whole arm): 45 (9.5) n (%)
TEAE: Vomiting (whole arm): 77 (16.2) n (%)
TEAE: Weight decreased (whole arm): 147 (30.9) n (%)
